Experimental data: patent US5981592A, “Method and composition for treating cystic fibrosis” (priority 1998, dated 1999)

What was measured:
[1] = tested on: epithelial cells of the distal colon (crypts); test: Labelling Index (LI) of proliferating crypt cells in distal colon, BrD-U staining; format: in vivo, Female Sprague-Dewley rats; conditions: rats, 30 days; for LI (Labelling Index): 6.3 mg/Kg/day, distal colon, control 12.62, P<0.05
Text: The term "effective to elicit a chemoprotective effect" was used herein means that abnormal cell proliferation is reduced. A method of measuring cell proliferation in animals is the Labelling Index (LI). Epithelial cells of the distal colon are stained using a histologic biomarker of proliferating cells. Microscopic examination allows for quantification of the proportion of proliferating cells in the crypts. A high proportion of proliferating cells or LI, particularly in the upper portion of the crypts, is an indicator of abnormal cell proliferation. A reduction in the LI of at least 10 to 50%, preferably at least 30% is associated with the reduction of abnormal cell proliferation. Of course, the particular R-NSAID used must be enantiomerically stable in the animal species being tested.
(§1) A study was performed to compare the R- and S-isomers of flurbiprofen with regard to their effect on the Labelling Index (LI) and duodenal ulceration in contrast to the S-isomer.
(§2) Female Sprague-Dewley rats were randomized to 4 groups (N=10) receiving 6.3 mg/Kg/day R-flurbiprofen; 6.3 mg/Kg/day S-flurbiprofen; 12.5 mg/Kg/day racemic flurbiprofen; or vehicle control. Fasted rats were sacrificed after 30 days. Small bowel ulcer score was recorded in each group.
The LI is calculated using a histologic biomarker of proliferating cells, a monoclonal antibody to Bromo-deoxyuridine (BrD-U). Intestinal crypts are examined microscopically in longitudinal sections such that proliferating cells are identified and quantified as a proportion of total crypt cells. An LI was determined for each rat using BrD-U staining to identify the proportion of mitotic cells in the crypt of Leiberkuhn. Twelve well-oriented crypts (distal colon) were examined in each rat.

[2] = tested on: white cell count in the blood; conditions: in vivo; cited from earlier work
[3] = tested on: neutrophils; conditions: high doses; stated as believed; cited from earlier work
[4] = tested on: cystic fibrosis lung disease; conditions: cited from earlier work
[5] = tested on: colon cancer; conditions: cited from earlier work; for survival among colon cancer patients: 5-fluorouracil alone or with levamisole
[6] = tested on: small bowel; parameters: species or system Female Sprague-Dewley rats; conditions: rat, in vivo
Procedure: The term "with reduced gastrointestinal toxicity" as used herein means that the administration of the particular R-NSAID is less ulcerogenic to the gastrointestinal tract of the human or other mammal than the corresponding racemate or S-NSAID. One measure of ulcerogenic activity is the small bowel ulcer score. A rat is treated daily through oral administration of the R-NSAID for 30 days. At the end of the 30 days, the rat is sacrificed and the intestines removed. Lesions of appreciable size in the mucosa are measured. A cumulative score equaling the sum of the diameters of the ulcers measured are reported as the ulcer score. An ulcer score essentially equal to that of a control rat, or a reduction of the ulcer score of at least 50 to 90%, preferably at least 80%, as compared to the corresponding S-NSAID or racemate, is considered a reduction in gastrointestinal toxicity.
as §1, §2

[7] = tested on: neutrophil traffic; test: effect on neutrophil traffic in the normal rat; format: in vivo; conditions: for neutrophil adhesiveness and extravasation: post-capillary venules and surrounding tissue
[8] = tested on: colon cancer; conditions: cited from earlier work; for prevention of cancer of the large bowel and rectum: causal relationship with use identified by the reference
[9] = tested on: gastric mucosa; conditions: in vivo; cited from earlier work

CC(C(=O)O)c1ccc(-c2ccccc2)c(F)c1 (racemic) [racemic flurbiprofen]
LI, result in words ([1]; equal-molar doses of both enantiomers (racemic 12.5 mg/Kg/day), relative to R- and S-flurbiprofen groups): further reduced

CC(C)Cc1ccc(C(C)C(=O)O)cc1 (racemic) [racemic ibuprofen]
leukopenia/agranulocytosis syndrome [2]: leukopenia/agranulocytosis syndrome has been described | influx of neutrophils to the alveolar crevices [3]: inhibits the influx of neutrophils to the alveolar crevices | progression of the lung disease ([4]; high doses, four-year period, cystic fibrosis patients): slows progression of the lung disease | side effects at high doses ([4]; human, in vivo): conjunctivitis and epistaxis

O=c1[nH]cc(F)c(=O)[nH]1 [5-fluorouracil]
survival among colon cancer patients [5]: No improvement in survival

C[C@@H](C(=O)O)c1ccc(-c2ccccc2)c(F)c1 [R-flurbiprofen]
ulcerogenicity, in words [6]: much less ulcerogenic than its S-enantiomer | cell proliferation in the distal colon, in words [1]: suppresses cell proliferation in the distal colon | LI (Labelling Index) [1]: 8.71 | effect on neutrophil traffic relative to the S-enantiomer [7]: as effective as the S-enantiomer | neutrophil adhesiveness and extravasation [7]: produce neutrophil adhesiveness in the post-capillary venules and extravasation of neutrophils into the surrounding tissue

CC(C)Cc1ccc([C@H](C)C(=O)O)cc1 [S(+) ibuprofen]
gastrointestinal side effects ([4]; human, in vivo): severely limit the chronic use of this therapy

C[C@H](C(=O)O)c1ccc(-c2ccccc2)c(F)c1 [S-flurbiprofen]
LI (Labelling Index) [1]: 9.09 | neutrophil adhesiveness and extravasation [7]: produce neutrophil adhesiveness in the post-capillary venules and extravasation of neutrophils into the surrounding tissue

CC(=O)Oc1ccccc1C(=O)O [aspirin]
protection against colon cancer ([8]; epidemiologic survey): confer protection against colon cancer | damage and irritation of the gastric mucosa [9]: cause damage and irritation of the gastric mucosa

COc1ccc2c(c1)c(CC(=O)O)c(C)n2C(=O)c1ccc(Cl)cc1 [indomethacin]
leukopenia/agranulocytosis syndrome [2]: leukopenia/agranulocytosis syndrome has been described | prevention of cancer of the large bowel and rectum [8]: prevention of cancer of the large bowel and rectum | damage and irritation of the gastric mucosa [9]: cause damage and irritation of the gastric mucosa

CC(C(=O)O)c1cccc(C(=O)c2ccccc2)c1 (stereo not drawn) [ketoprofen]
leukopenia/agranulocytosis syndrome [2]: leukopenia/agranulocytosis syndrome has been described

c1ccc([C@H]2CN3CCSC3=N2)cc1 [levamisole]
survival among colon cancer patients [5]: improved survival rate | T-cell count / immune system ([5]; human, in vivo): stimulate the immune system and increase T-cell count

CN1C(C(=O)Nc2ccccn2)=C(O)c2ccccc2S1(=O)=O [peroxicam]
prevention of cancer of the large bowel and rectum [8]: prevention of cancer of the large bowel and rectum

CC1=C(CC(=O)O)c2cc(F)ccc2/C1=C\c1ccc([S+](C)[O-])cc1 (stereo not drawn) [sulindac]
prevention of cancer of the large bowel and rectum [8]: prevention of cancer of the large bowel and rectum
